Numbers after ± are expanded uncertainties.
Details: Liquid, Closed cell (Static) method

Row | Structure (SMILES) | vapor or sublimation pressure (273.15 K) [kPa] | vapor or sublimation pressure (283.15 K) [kPa] | vapor or sublimation pressure (293.15 K) [kPa] | vapor or sublimation pressure (253.15 K) [kPa] | vapor or sublimation pressure (263.15 K) [kPa]
1 | F/C=C\C(F)(F)F [(Z)-1,3,3,3-tetrafluoro-1-propene] | 68.5 ± 1 | 102.5 ± 1.1 | 148.9 ± 1.1 | – | –
2 | CCC [propane] | 474.4 ± 1.7 | 636.4 ± 2.1 | 836.3 ± 2.6 | 244.1 ± 1.2 | 345.1 ± 1.4
